pEC50: −log10 of the molar value. Read-outs that look alike come from different tables or passages of the source.
Experiments:
[1] = system: HCV genotype 1b (Con1) replicon in HUH-7 cells; assay: HCV replicon luciferase reporter assay, genotype 1b; type: cell-based; details: Hepatitis C virus, Huh-7, 72 h, 3 days incubation
Outline: (§1)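 Replicon inhibition for both genotypes was measured as Renilla luciferase signal (EnduRen, 7.5 μM final, 2 h) after 3-day, 37° C exposure of replicon-bearing HUH-7 cells in 4% FCS DMEM, 0.5% DMSO. The 1b construct carries S1179I; the 1a H77 construct carries P1496L and S2204I. Twenty-point, 3-fold dilutions were fitted four-parametrically for EC50, and CC50 was taken from multiplexed Cell Titer-Blue.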

[2] = system: HCV genotype 1a (H77 strain) replicon in HUH-7 cells; assay: HCV replicon luciferase reporter assay, genotype 1a; type: cell-based; details: Hepatitis C virus, Huh-7, 72 h, 3 days incubation
Outline: as §1

[3] = HCV genotype 1b replicon luciferase, read-out: LE_1b (EC50, range)
[4] = HCV genotype 1a replicon luciferase, read-out: LE_1a (EC50, range)
[5] = HCV genotype 1b replicon luciferase assay, range class, read-out: LE_1b (EC50, range)
[6] = HCV genotype 1a replicon luciferase assay, range class, read-out: LE_1a (EC50, range)
[7] = GETYPE1B, HCV genotype 1b replicon luciferase, read-out: LE_1b (EC50)
[8] = GETYPE1B, HCV genotype 1b replicon luciferase, read-out: LE_1b (EC50, range)
[9] = GETYPE1A, HCV genotype 1a replicon luciferase, read-out: LE_1a (EC50)
[10] = GETYPE1A, HCV genotype 1a replicon luciferase, read-out: LE_1a (EC50, range)

Work on `[2H]C([2H])([2H])C(OC(=O)N[C@@H]1C(=O)N2C[C@H](Oc3nnc(OC)c4ccccc34)C[C@H]2C(=O)N[C@]2(C(=O)NS(=O)(=O)C3(C)CC3)C[C@H]2/C=C\CC[C@@H](C)C[C@H]1C)(C([2H])([2H])[2H])C(F)(F)F` [Compound 5010] yielded a pEC50 [1, 3] of over 8.26 and a pEC50 [2, 4] of over 8.26.
Work on `CCn1nc(O[C@@H]2C[C@H]3C(=O)N[C@]4(C(=O)NS(=O)(=O)C5CC5)C[C@H]4/C=C\CC[C@H](C)C[C@@H](C)[C@H](NC(=O)OC(C)(C)C(F)(F)F)C(=O)N3C2)c2ccccc2c1=O` [Compound 5066, 1,1,1-trifluoro-2-methylpropan-2-yl((2R,6S,7R,9S,13aS,14aR,16aS,Z)-14a-((cyclopropylsulfonyl)carbamoyl)-2-((3-ethyl-4-oxo-3,4-dihydrophthalazin-1-yl)oxy)-7,9-dimethyl-5,16-dioxo-1,2,3,5,6,7,8,9,10,11,13a,14,14a,15,16,16a-hexadecahydrocyclopropa[e]pyrrolo[1,2-a][1,4]diazacyclopentadecin-6-yl)carbamate] yielded a pEC50 [1, 3] of under 7.06 and a pEC50 [2, 4] of under 7.06.
`CC[C@@H]1C[C@H](C)CC/C=C\[C@@H]2C[C@@]2(C(=O)NS(=O)(=O)C2CC2)NC(=O)[C@@H]2C[C@@H](Oc3nccc4cc(OC)c(F)cc34)CN2C(=O)[C@H]1NC(=O)OC(C)(C)C(C)(F)F` [Compound 5473, 3,3-difluoro-2-methylbutan-2-yl((2R,6S,7R,9R,13aS,14aR,16aS,Z)-14a-((cyclopropylsulfonyl)carbamoyl)-7-ethyl-2-((7-fluoro-6-methoxyisoquinolin-1-yl)oxy)-9-methyl-5,16-dioxo-1,2,3,5,6,7,8,9,10,11,13a,14,14a,15,16,16a-hexadecahydrocyclopropa[e]pyrrolo[1,2-a][1,4]diazacyclopentadecin-6-yl)carbamate] was tested, and the pEC50 [1, 3] was 9.30 to 10.00 and the pEC50 [2, 4] was 8.30 to 9.00.
Work on `CC(C)n1nc(O[C@@H]2C[C@H]3C(=O)N[C@]4(C(=O)NS(=O)(=O)C5CC5)C[C@H]4/C=C\CC[C@H](C)C[C@@H](C)[C@H](NC(=O)OC(C)(C)C(F)(F)F)C(=O)N3C2)c2ccccc2c1=O` [Compound 1009, 1,1,1-trifluoro-2-methylpropan-2-yl((2R,6S,7R,9S,13aS,14aR,16aS,Z)-14a-((cyclopropylsulfonyl)carbamoyl)-2-((3-isopropyl-4-oxo-3,4-dihydrophthalazin-1-yl)oxy)-7,9-dimethyl-5,16-dioxo-1,2,3,5,6,7,8,9,10,11,13a,14,14a,15,16,16a-hexadecahydrocyclopropa[e]pyrrolo[1,2-a][1,4]diazacyclopentadecin-6-yl)carbamate] yielded a pEC50 [1, 5] of under 7.06 and a pEC50 [2, 6] of under 7.06.
For `CCCOc1cnc(O[C@@H]2C[C@H]3C(=O)N[C@]4(C(=O)NS(=O)(=O)C5(C)CC5)C[C@H]4/C=C\CC[C@@H](C)C[C@@H](C)[C@H](NC(=O)OCC4(C)CC4)C(=O)N3C2)c2ccccc12` [Compound 5083, (1-methylcyclopropyl)methyl ((2R,6S,7R,9R,13aS,14aR,16aS,Z)-7,9-dimethyl-14a-(((1-methylcyclopropyl)sulfonyl)carbamoyl)-5,16-dioxo-2-((4-propoxyisoquinolin-1-yl)oxy)-1,2,3,5,6,7,8,9,10,11,13a,14,14a,15,16,16a-hexadecahydrocyclopropa[e]pyrrolo[1,2-a][1,4]diazacyclopentadecin-6-yl)carbamate], the pEC50 [1, 3] was over 8.26 and the pEC50 [2, 4] was over 8.26.
`COc1ccc2c(O[C@@H]3C[C@H]4C(=O)N[C@]5(C(=O)NS(=O)(=O)C6(CF)CC6)C[C@H]5/C=C\CC[C@@H](C)C[C@@H](C)[C@H](NC(=O)OC(C)(C)C)C(=O)N4C3)nc(N3CCCC3)nc2c1` [Compound 3014, tert-butyl ((2R,6S,7R,9R,13aS,14aR,16aS,Z)-14a-(((1-(fluoromethyl)cyclopropyl)sulfonyl)carbamoyl)-2-((7-methoxy-2-(pyrrolidin-1-yl)quinazolin-4-yl)oxy)-7,9-dimethyl-5,16-dioxo-1,2,3,5,6,7,8,9,10,11,13a,14,14a,15,16,16a-hexadecahydrocyclopropa[e]pyrrolo[1,2-a][1,4]diazacyclopentadecin-6-yl)carbamate] was tested, and the pEC50 [1, 5] was over 8.26 and the pEC50 [2, 6] was 6.99 to 8.32.
`CC[C@@H]1C[C@H](C)CC/C=C\[C@@H]2C[C@@]2(C(=O)NS(=O)(=O)C2(C)CC2)NC(=O)[C@@H]2C[C@@H](Oc3nc4c(c5cc(OC)c(F)cc35)CCCO4)CN2C(=O)[C@H]1NC(=O)OC(C)(C)C(C)(F)F` [Compound 1198] was tested, and the pEC50 [1, 7] was 9.05, the pEC50 [1, 8] was 9.00 to 9.29 and the pEC50 [2, 9] was 9.30. It also gave a pEC50 [2, 10] of 9.30 to 10.00.
For `CC[C@@H]1C[C@H](C)CC/C=C\[C@@H]2C[C@@]2(C(=O)NS(=O)(=O)C2(C)CC2)NC(=O)[C@@H]2C[C@@H](Oc3cnnc4cc(OC)ccc34)CN2C(=O)[C@H]1NC(=O)OC(C)(C)C(F)(F)F` [Compound 4320], the pEC50 [1, 7] was 7.66, the pEC50 [1, 8] was 7.46 to 8.30 and the pEC50 [2, 9] was 7.82. For the same compound, the pEC50 [2, 10] was 7.46 to 8.30.
Compound `CC[C@@H]1C[C@H](C)CC/C=C\[C@@H]2C[C@@]2(C(=O)NS(=O)(=O)C2(C)CC2)NC(=O)[C@@H]2C[C@@H](Oc3cc(-n4cccn4)nc4cc(OC)ccc34)CN2C(=O)[C@H]1NC(=O)OC(C)(C)C(F)(F)F` [Compound 4246] has a pEC50 [1, 8] of 9.00 to 9.29 and a pEC50 [2, 10] of 8.30 to 9.00.
`CC[C@@H]1C[C@H](C)CC/C=C\[C@@H]2C[C@@]2(C(=O)NS(=O)(=O)C2CC2)NC(=O)[C@@H]2C[C@@H](Oc3ncc(OC)c4ccccc34)CN2C(=O)[C@H]1NC(=O)OC(C)(C)C(F)F` [Compound 5537, 1,1-difluoro-2-methylpropan-2-yl((2R,6S,7R,9R,13aS,14aR,16aS,Z)-14a-((cyclopropylsulfonyl)carbamoyl)-7-ethyl-2-((4-methoxyisoquinolin-1-yl)oxy)-9-methyl-5,16-dioxo-1,2,3,5,6,7,8,9,10,11,13a,14,14a,15,16,16a-hexadecahydrocyclopropa[e]pyrrolo[1,2-a][1,4]diazacyclopentadecin-6-yl)carbamate] gave a pEC50 [1, 3] of 9.30 to 10.00 and a pEC50 [2, 4] of 9.00 to 9.29.
In the case of `COc1cnc(O[C@@H]2C[C@H]3C(=O)N[C@]4(C(=O)NS(=O)(=O)C5(CF)CC5)C[C@H]4/C=C\CC[C@H](C)C[C@@H](C)[C@H](NC(=O)OC(C)(C)CC(F)(F)F)C(=O)N3C2)c2ccccc12` [Compound 1061, 4,4,4-trifluoro-2-methylbutan-2-yl((2R,6S,7R,9S,13aS,14aR,16aS,Z)-14a-(((1-(fluoromethyl)cyclopropyl)sulfonyl)carbamoyl)-2-((4-methoxyisoquinolin-1-yl)oxy)-7,9-dimethyl-5,16-dioxo-1,2,3,5,6,7,8,9,10,11,13a,14,14a,15,16,16a-hexadecahydrocyclopropa[e]pyrrolo[1,2-a][1,4]diazacyclopentadecin-6-yl)carbamate], the pEC50 [1, 5] was 6.99 to 8.32 and the pEC50 [2, 6] was 6.99 to 8.32.
For `COc1cc2ccnc(O[C@@H]3C[C@H]4C(=O)N[C@]5(C(=O)NS(=O)(=O)C6CC6)C[C@H]5/C=C\CC[C@@H](C)C[C@@H](C)[C@H](NC(=O)OC(C)(C)C)C(=O)N4C3)c2cc1OC` [Compound 5391, tert-butyl ((2R,6S,7R,9R,13aS,14aR,16aS,Z)-14a-((cyclopropylsulfonyl)carbamoyl)-2-((6,7-dimethoxyisoquinolin-1-yl)oxy)-7,9-dimethyl-5,16-dioxo-1,2,3,5,6,7,8,9,10,11,13a,14,14a,15,16,16a-hexadecahydrocyclopropa[e]pyrrolo[1,2-a][1,4]diazacyclopentadecin-6-yl)carbamate], the pEC50 [1, 3] was 8.30 to 9.00 and the pEC50 [2, 4] was 8.30 to 9.00.
Compound `COc1cnc(O[C@@H]2C[C@H]3C(=O)N[C@]4(C(=O)NS(=O)(=O)C5CC5)C[C@H]4/C=C\CC[C@H](C)C[C@@H](C)[C@H](NC(=O)OC(C)(C)C)C(=O)N3C2)c2cc(Cl)ccc12` [Compound 1208, tert-butyl ((2R,6S,7R,9S,13aS,14aR,16aS,Z)-2-((7-chloro-4-methoxyisoquinolin-1-yl)oxy)-14a-((cyclopropylsulfonyl)carbamoyl)-7,9-dimethyl-5,16-dioxo-1,2,3,5,6,7,8,9,10,11,13a,14,14a,15,16,16a-hexadecahydrocyclopropa[e]pyrrolo[1,2-a][1,4]diazacyclopentadecin-6-yl)carbamate] has a pEC50 [1, 3] of 8.30 to 9.00 and a pEC50 [2, 4] of 7.46 to 8.30.
`COCCOc1cc2c(Cl)cccc2c(O[C@@H]2C[C@H]3C(=O)N[C@]4(C(=O)NS(=O)(=O)C5(C)CC5)C[C@H]4/C=C\CC[C@@H](C)C[C@@H](C)[C@H](NC(=O)OC(C)(C)C(C)(F)F)C(=O)N3C2)n1` [Compound 1116, 3,3-difluoro-2-methylbutan-2-yl((2R,6S,7R,9R,13aS,14aR,16aS,Z)-2-((5-chloro-3-(2-methoxyethoxyl)isoquinolin-1-yl)oxy)-7,9-dimethyl-14a-(((1-methylcyclopropyl)sulfonyl)carbamoyl)-5,16-dioxo-1,2,3,5,6,7,8,9,10,11,13a,14,14a,15,16,16a-hexadecahydrocyclopropa[e]pyrrolo[1,2-a][1,4]diazacyclopentadecin-6-yl)carbamate] showed a pEC50 [1, 5] of over 8.26 and a pEC50 [2, 6] of over 8.26.
